Data from patent US10544130B2, “Metallo-beta-lactamase inhibitors” (priority 2015, dated 2020).

Test system: Pseudomonas aeruginosa PAO1 MB9798 (efflux+, IMP-1)
Settings: ratio MITC95 PA 9798/MITC95 PA 9799; imipenem at 2 μg/mL
Text: The strain background was Pseudomonas aeruginosa PAO1.
The strain set was then used as a pair to determine the effect of metallo-β-lactamase inhibitors of Formula I on the MIC of imipenem and/or ceftazidime. A fixed concentration of antibiotic was included in standard microbroth MIC tests, usually at the CLSI (Clinical and Laboratory Standards Institute) breakpoint concentration. A fixed amount of a class A/C beta-lactamase inhibitor was also included to inhibit the resident Pseudomonas AmpC enzyme. A serial titration of the metallo-β-lactamase inhibitor was included and the concentration of metallo-β-lactamase inhibitor which restores susceptibility of the strain to the included antibiotic was recorded. That concentration of metallo-β-lactamase inhibitor was then compared between the two strains to determine the fold difference between the efflux + (MB9798) and efflux − (MB9799) strains. This was taken as an indication of the extent to which the MBLi is subject to efflux.

Compound	Efflux ratio
CN([C@H]1CCNC1)S(=O)(=O)c1ccc(-c2cccc3sc(N)nc23)c(-c2nnn[nH]2)c1S(N)(=O)=O [Example 65, 4-(2-amino-1,3-benzothiazol-4-yl)-N1-methyl-N1-[(3S)-pyrrolidin-3-yl]-3-(1H-tetrazol-5-yl)benzene-1,2-disulfonamide]	2.00
Nc1nc2c(-c3ccc(S(=O)(=O)N4CCC[C@H](N)C4)c(S(N)(=O)=O)c3-c3nnn[nH]3)cccc2s1 [Example 66, 3-(2-amino-1,3-benzothiazol-4-yl)-6-{[(3S)-3-aminopiperidin-1-yl]sulfonyl}-2-(1H-tetrazol-5-yl)benzenesulfonamide]	2.00
Nc1nc2c(-c3ccc(S(=O)(=O)N[C@H]4CCCNC4)c(S(N)(=O)=O)c3-c3nnn[nH]3)cccc2s1 [Example 67, 4-(2-amino-1,3-benzothiazol-4-yl)-N1-[(3S)-piperidin-3-yl]-3-(1H-tetrazol-5-yl)benzene-1,2-disulfonamide]	1.00
Nc1nc2c(-c3ccc(S(=O)(=O)N4CCC[C@@H](N)C4)c(S(N)(=O)=O)c3-c3nnn[nH]3)cccc2s1 [Example 68, 3-(2-amino-1,3-benzothiazol-4-yl)-6-{[(3R)-3-aminopiperidin-1-yl]sulfonyl}-2-(1H-tetrazol-5-yl)benzenesulfonamide]	2.00
Nc1nc2c(-c3ccc(S(=O)(=O)N[C@@H]4CCCNC4)c(S(N)(=O)=O)c3-c3nnn[nH]3)cccc2s1 [Example 69, 4-(2-amino-1,3-benzothiazol-4-yl)-N1-[(3R)-piperidin-3-yl]-3-(1H-tetrazol-5-yl)benzene-1,2-disulfonamide]	0.50
NC[C@@H]1CCN(S(=O)(=O)c2ccc(-c3cccc4sc(N)nc34)c(-c3nnn[nH]3)c2S(N)(=O)=O)C1 [Example 70, 3-(2-amino-1,3-benzothiazol-4-yl)-6-{[(3S)-3-(aminomethyl)pyrrolidin-1-yl]sulfonyl}-2-(1H-tetrazol-5-yl)benzenesulfonamide]	1.00
Nc1nc2c(-c3ccc(S(=O)(=O)NC[C@H]4CCNC4)c(S(N)(=O)=O)c3-c3nnn[nH]3)cccc2s1 [Example 73, 4-(2-amino-1,3-benzothiazol-4-yl)-N^1-[(3S)-pyrrolidin-3-ylmethyl]-3-(1H-tetrazol-5-yl)benzene-1,2-disulfonamide]	0.50
NC[C@H]1CCN(S(=O)(=O)c2ccc(-c3cccc4sc(N)nc34)c(-c3nnn[nH]3)c2S(N)(=O)=O)C1 [Example 74, 3-(2-amino-1,3-benzothiazol-4-yl)-6-{[(3R)-3-(aminomethyl)pyrrolidin-l-yl]sulfonyl}-2-(1H-tetrazol-5-yl)benzenesulfonamide]	1.00
Nc1nc2c(-c3ccc(S(=O)(=O)NC[C@@H]4CCNC4)c(S(N)(=O)=O)c3-c3nnn[nH]3)cccc2s1 [Example 75, 4-(2-amino-1,3-benzothiazol-4-yl)-N^1-[(3R)-pyrrolidin-3-ylmethyl]-3-(1H-tetrazol-5-yl)benzene-1,2-disulfonamide]	1.00
CN1CC[C@@H](CNS(=O)(=O)c2ccc(-c3cccc4sc(N)nc34)c(-c3nnn[nH]3)c2S(N)(=O)=O)C1 [Example 76, 4-(2-amino-1,3-benzothiazol-4-yl)-N^1-{[(3R)-1-methylpyrrolidin-3-yl]methyl}-3-(1H-tetrazol-5-yl)benzene-1,2-disulfonamide]	0.50
CN1CC[C@H](CNS(=O)(=O)c2ccc(-c3cccc4sc(N)nc34)c(-c3nnn[nH]3)c2S(N)(=O)=O)C1 [Example 77, 4-(2-amino-1,3-benzothiazol-4-yl)-N1-{[(3S)-1-methylpyrrolidin-3-yl]methyl}-3-(1H-tetrazol-5-yl)benzene-1,2-disulfonamide]	0.50
Nc1nc2c(-c3ccc(S(=O)(=O)N[C@H]4CN[C@H](CO)C4)c(S(N)(=O)=O)c3-c3nnn[nH]3)cccc2s1 [Example 78, 4-(2-amino-1,3-benzothiazol-4-yl)-N1-[(3R,5S)-5-(hydroxymethyl)pyrrolidin-3-yl]-3-(1H-tetrazol-5-yl)benzene-1,2-disulfonamide]	0.50
Nc1nc2c(-c3ccc(S(=O)(=O)N[C@@H]4CN[C@@H](CO)C4)c(S(N)(=O)=O)c3-c3nnn[nH]3)cccc2s1 [Example 79, 4-(2-amino-1,3-benzothiazol-4-yl)-N1-[(3S,5R)-5-(hydroxymethyl)pyrrolidin-3-yl]-3-(1H-tetrazol-5-yl)benzene-1,2-disulfonamide]	0.50
Nc1nc2c(-c3ccc(S(=O)(=O)N[C@@H]4CN[C@H](CO)C4)c(S(N)(=O)=O)c3-c3nnn[nH]3)cccc2s1 [Example 80, 4-(2-amino-1,3-benzothiazol-4-yl)-N1-[(3S,5S)-5-(hydroxymethyl)pyrrolidin-3-yl]-3-(1H-tetrazol-5-yl)benzene-1,2-disulfonamide]	1.00
Nc1nc2c(-c3ccc(S(=O)(=O)N[C@H]4CN[C@@H](CO)C4)c(S(N)(=O)=O)c3-c3nnn[nH]3)cccc2s1 [Example 81, 4-(2-amino-1,3-benzothiazol-4-yl)-N1-[(3R,5R)-5-(hydroxymethyl)pyrrolidin-3-yl]-3-(1H-tetrazol-5-yl)benzene-1,2-disulfonamide]	0.50
Nc1nc2c(-c3ccc(S(=O)(=O)N[C@H]4CN[C@@H](C(=O)O)C4)c(S(N)(=O)=O)c3-c3nnn[nH]3)cccc2s1 [Example 82, (4R)-4-({[4-(2-amino-1,3-benzothiazol-4-yl)-2-sulfamoyl-3-(1H-tetrazol-5-yl)phenyl]sulfonyl}amino)-D-proline]	0.50
Nc1nc2c(-c3ccc(S(=O)(=O)NC4(CO)CCNC4)c(S(N)(=O)=O)c3-c3nnn[nH]3)cccc2s1 (stereo not drawn) [Example 83, 4-(2-amino-1,3-benzothiazol-4-yl)-N1-[3-(hydroxymethyl)pyrrolidin-3-yl]-3-(1H-tetrazol-5-yl)benzene-1,2-disulfonamide]	0.50
Nc1nc2c(-c3ccc(S(=O)(=O)NC4(CO)CCNC4)c(S(N)(=O)=O)c3-c3nnn[nH]3)cccc2s1 (stereo not drawn) [Example 84, 4-(2-amino-1,3-benzothiazol-4-yl)-N1-[3-(hydroxymethyl)pyrrolidin-3-yl]-3-(1H-tetrazol-5-yl)benzene-1,2-disulfonamide]	1.00
COCCNCCNS(=O)(=O)c1ccc(-c2cccc3sc(N)nc23)c(-c2nnn[nH]2)c1S(N)(=O)=O [Example 85, 4-(2-aminobenzo[d]thiazol-4-yl)-N1-(2-((2-methoxyethyl)amino)ethyl)-3-(1H-tetrazol-5-yl)benzene-1,2-disulfonamide]	1.00
Nc1nc2c(-c3ccc(S(=O)(=O)NCC4(O)CCNCC4)c(S(N)(=O)=O)c3-c3nnn[nH]3)cccc2s1 [Example 86, 4-(2-aminobenzo[d]thiazol-4-yl)-N^1-((4-hydroxypiperidin-4-yl)methyl)-3-(1H-tetrazol-5-yl)benzene-1,2-disulfonamide]	0.50
CC(C)(N)CNS(=O)(=O)c1ccc(-c2cccc3sc(N)nc23)c(-c2nnn[nH]2)c1S(N)(=O)=O [Example 87, N^1-(2-amino-2-methylpropyl)-4-(2-aminobenzo[d]thiazol-4-yl)-3-(1H-tetrazol-5-yl)benzene-1,2-disulfonamide]	0.50
